# Experimental data from patent US20130287807A1, “COMPOUNDS FOR TREATING SYMPTOMS ASSOCIATED WITH PARKINSON'S DISEASE” (priority 2008, published 2013).
# Ends that are not written are not given here.
# What was measured:
# [1] = tested on: monoclonal antibody MV-004; test: In vitro binding assay (ELISA), BSA-coupled peptides, parental antibody MV-004; set-up: species or system BalbC mice; conditions: Table 1B; peptide-BSA on plate, compared to original epitope
# Protocol: Peptides derived from Phage Display as well as variants thereof were coupled to BSA and bound to ELISA plates (1 μM; as indicated in the respective figures) and subsequently incubated with the monoclonal antibody that was used for the screening procedure to analyse binding capacity of identified peptides.
# Legend to Table 1B: the binding capacity is coded by the following binding code: 1:X describes the dilution factor of the parental AB.
# [2] = tested on: monoclonal antibody MV-004; test: In vitro inhibition assay (ELISA), MV-004 binding to original epitope; set-up: species or system BalbC mice; conditions: Table 2B; OD at 10 ug peptide compared to original peptide
# Protocol: (§1) Different amounts of peptides (concentrations ranging from 10 μg to 0.08 μg; serial dilutions; for MV-002: concentrations ranging from 5 μg to 0.03 μg; serial dilutions), derived from Phage Display were incubated with the monoclonal antibody that was used for the screening procedure. Peptides diminishing subsequent binding of the antibody to the original epitope coated on ELISA plates were considered as inhibiting in this assay.
# (§2) Legend to Table 2B: the inhibition capacity is coded by the following code: Weak inhibition means more peptide is required to lower AB binding than with the original epitope; strong inhibition means similar peptide amounts are required for mimotope and original epitope for lowering AB binding. Mimotopes are compared to the original peptide as standard. OD at 10 ug peptide used in the assay is used to calculate the competition capacity compared to original peptide.
# [3] = tested on: monoclonal antibody MV-002; test: In vitro binding assay (ELISA), BSA-coupled peptides, parental antibody MV-002; set-up: species or system C57/B16 mice; conditions: Table 1 (MV-002); peptide-BSA on plate, compared to original epitope
# Procedure, shortened: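 BSA-conjugated phage-display peptides and variants coated on ELISA plates at 1 μM, then incubated with the monoclonal antibody used for the screen. Binding capacity given as 1:X, the dilution factor of the parental antibody; Ac- marks acetylated amino acids.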
# [4] = tested on: monoclonal antibody MV-002; test: In vitro inhibition assay (ELISA), MV-002 binding to original epitope; set-up: species or system C57/B16 mice; conditions: for inhibition of binding of monoclonal antibody in in vitro competition experiments: MV-002 mimotopes; for Inhibition Capacity: Table 2 (MV-002), OD at 5 ug peptide compared to original peptide
# Protocol: as §1
# as §2, with “2:” for “2B:”, “5” for “10”
# [5] = tested on: injected peptide (mimotope-BSA conjugate); test: Mimotope vaccination, serum titer ELISA against injected peptide; assay type: in vivo, C57/B16 mice; conditions: 30 μg peptide-KLH s.c. with alum, anti-mouse IgG
# Protocol: (§3) Inhibiting as well as non-inhibiting peptides were coupled to KLH and injected into mice (wildtype C57/B16 mice; subcutaneous injection into the flank) together with an appropriate adjuvant (aluminium hydroxide). Animals were vaccinated 3-6 times in biweekly intervals and sera were taken biweekly as well. Titers to injected peptides, as well as to an irrelevant peptide were determined with every serum. Furthermore, titers against the recombinant human Aβ protein, and against original peptides were determined respectively. In general sera were analysed by reaction against peptides coupled to Bovine Serum Albumin (BSA) and recombinant full length proteins which were immobilised on ELISA plates. Titers were determined using anti mouse IgG specific antibodies. For detailed results see FIGS. 15, 16 and 17 respectively and FIGS. 23, 24 and 25 respectively.
# (§4) Female C57/b16 mice, 5-6 mice per group, were subcutaneously immunized with 30 μg peptide coupled to KLH. Control groups were administered original epitope-KLH conjugates respectively. As adjuvant alum was used (always 1 mg per mouse). […] The in vitro ELISA assay to determine the antibody titer was performed with sera of single mice after each vaccination in a two week interval (see FIGS. 15 and 16 respectively). The wells of the ELISA plate were coated with mimotope-BSA conjugate and an irrelevant peptide-BSA conjugate (negative control). The positive control was performed by reaction of the parental antibody with the respective mimotope-BSA conjugate. The detection was performed with anti-mouse IgG. Additionally, recombinant proteins were immobilised on ELISA plates and sera reacted accordingly. FIGS. 15 to 17 show representative examples for assays used to characterise mimotopes in vivo.
# as §4, with “FIGS. 25” for “FIGS. 15”, “and 26” for “and 16”, “respectively). Titers were calculated as OD max/2 in all figures shown.” for “respectively).”, “FIGS. 23, 24 and 25” for “FIGS. 15 to 17”
# irrelevant peptide p1454 = test: Mimotope vaccination, serum titer ELISA against irrelevant peptide; assay type: in vivo, C57/B16 mice; conditions: 30 μg peptide-KLH s.c. with alum
# Protocol: as §3, §4
# as §4, with “FIGS. 25” for “FIGS. 15”, “and 26” for “and 16”, “respectively). Titers were calculated as OD max/2 in all figures shown.” for “respectively).”, “FIGS. 23, 24 and 25” for “FIGS. 15 to 17”
# p4377 = test: Mimotope vaccination, serum ELISA against p4377; assay type: in vivo, C57/B16 mice; conditions: peptide-KLH vaccines with alum; FIG. 24
# Protocol: as §3
# as §4, with “FIGS. 25” for “FIGS. 15”, “and 26” for “and 16”, “respectively). Titers were calculated as OD max/2 in all figures shown.” for “respectively).”, “FIGS. 23, 24 and 25” for “FIGS. 15 to 17”
# [6] = tested on: Aβ/truncated/modified forms; test: In vivo characterisation of mimotopes: detection of Aβ/truncated/modified forms; set-up: species or system C57/B16 mice; key: +: All peptides listed in table 4 mount specific immune reactions against full length and/or truncated and modified forms of Aβ or fragments thereof; conditions: Table 4, MV-002 derived mimotopes
# Protocol: as §3, §4
# as §4, with “FIGS. 25” for “FIGS. 15”, “and 26” for “and 16”, “respectively). Titers were calculated as OD max/2 in all figures shown.” for “respectively).”, “FIGS. 23, 24 and 25” for “FIGS. 15 to 17”
# [7] = molecular target: monoclonal antibody MV-002; test: ELISA on peptide-BSA; code 2 = medium binding, OD halfmax 1:40000-320000
# [8] = molecular target: monoclonal antibody MV-001; test: ELISA on peptide-BSA; code 1 = weak binding, OD halfmax 1:<4000
# [9] = molecular target: monoclonal antibody MV-001; test: inhibition ELISA, competitor coated original epitope p4371; code 1 = weaker than original epitope
molecule,measurement,setting,value
ERWHEKHC [p4418],Binding Capacity,[1],3 (strong binding :>96000)
same,Inhibition Capacity,[2],2 (strong inhibition (as original epitope; OD of 10 ug peptide below 2 times of original peptide))
GEIYFERC [p4681],Binding Capacity,[3],3 (strong binding :>320000)
same,inhibition of binding of monoclonal antibody in in vitro competition experiments,[4],active in in vitro inhibition assays
same,Inhibition Capacity,[4],"2 (strong inhibition (as original epitope; OD of peptide below 2, 3 times of original peptide))"
same,immune response against injected peptide,[5],elicited immune responses
same,immune response against unrelated sequence (p1454),irrelevant peptide p1454,failed to induce a relevant unspecific immune response
same,immune response against original epitope p4377,p4377,mounted detectable immune responses
same,Detection of Aβ/truncated/modified forms,[6],+
ELWHRAFC [p4665],Binding Capacity,[1],2 (medium binding :24-96000)
same,Inhibition Capacity,[2],2 (strong inhibition (as original epitope; OD of 10 ug peptide below 2 times of original peptide))
GEIWFEGC [p4680],Binding Capacity,[3],3 (strong binding :>320000)
same,inhibition of binding of monoclonal antibody in in vitro competition experiments,[4],active in in vitro inhibition assays
same,Inhibition Capacity,[4],"2 (strong inhibition (as original epitope; OD of peptide below 2, 3 times of original peptide))"
same,immune response against injected peptide,[5],elicited immune responses
same,immune response against unrelated sequence (p1454),irrelevant peptide p1454,failed to induce a relevant unspecific immune response
same,immune response against original epitope p4377,p4377,mounted detectable immune responses
same,Detection of Aβ/truncated/modified forms,[6],+
ERWHEKC [p4790],Binding Capacity,[1],1 (weak binding :<24000)
same,Inhibition Capacity,[2],2 (strong inhibition (as original epitope; OD of 10 ug peptide below 2 times of original peptide))
ELWHRAC [p4786],Binding Capacity,[1],1 (weak binding :<24000)
same,Inhibition Capacity,[2],1 (Weaker than original epitope (OD of 10 ug peptide below 5 times of original peptide))
HQKMIFAC [p4675],Binding Capacity,[3],3 (strong binding :>320000)
same,inhibition of binding of monoclonal antibody in in vitro competition experiments,[4],active in in vitro inhibition assays
same,Inhibition Capacity,[4],"2 (strong inhibition (as original epitope; OD of peptide below 2, 3 times of original peptide))"
same,immune response against injected peptide,[5],elicited immune responses
same,immune response against unrelated sequence (p1454),irrelevant peptide p1454,failed to induce a relevant unspecific immune response
same,immune response against original epitope p4377,p4377,mounted detectable immune responses
same,Detection of Aβ/truncated/modified forms,[6],+
ELWHRYPC [p4420],Binding Capacity,[1],2 (medium binding :24-96000)
same,Inhibition Capacity,[2],1 (Weaker than original epitope (OD of 10 ug peptide below 5 times of original peptide))
EVWHRHQC [p4417],Binding Capacity,[1],2 (medium binding :24-96000)
same,Inhibition Capacity,[2],1 (Weaker than original epitope (OD of 10 ug peptide below 5 times of original peptide))
EVWHRGC [p4788],Binding Capacity,[1],1 (weak binding :<24000)
same,Inhibition Capacity,[2],1 (Weaker than original epitope (OD of 10 ug peptide below 5 times of original peptide))
EVWHRHC [p4789],Binding Capacity,[1],1 (weak binding :<24000)
same,Inhibition Capacity,[2],1 (Weaker than original epitope (OD of 10 ug peptide below 5 times of original peptide))
EVWHRLQC [p4419],Binding Capacity,[1],3 (strong binding :>96000)
same,Inhibition Capacity,[2],2 (strong inhibition (as original epitope; OD of 10 ug peptide below 2 times of original peptide))
"EVHHQKLVFC [p4377, reference compound]",immune response against injected peptide,[5],elicited immune responses
same,immune response against unrelated sequence (p1454),irrelevant peptide p1454,failed to induce a relevant unspecific immune response
same,immune response against original epitope p4377,p4377,mounted detectable immune responses
HQKMIFC [p4794],OD halfmax dilution factor of the parental antibody (1:X) (dilutionfactor(1:x)),[7],40000 to 320000
GSLFFWPC [p4688],OD halfmax dilution factor of the parental antibody (1:X) (dilutionfactor(1:x)),[7],40000 to 320000
GELFFEKC [p4795],OD halfmax dilution factor of the parental antibody (1:X) (dilutionfactor(1:x)),[7],40000 to 320000
TPLMFWHC [p4733],OD halfmax 1:X (dilution factor of the parental antibody at half-maximal OD) (dilutionfactor(1:x)),[8],< 4000
EDWFFWHC [p4709],OD halfmax 1:X (dilution factor of the parental antibody at half-maximal OD) (dilutionfactor(1:x)),[8],< 4000
QELKRYYC [p4724],OD halfmax 1:X (dilution factor of the parental antibody at half-maximal OD) (dilutionfactor(1:x)),[8],< 4000
GEIRFELC [p4796],OD halfmax dilution factor of the parental antibody (1:X) (dilutionfactor(1:x)),[7],40000 to 320000
QPNLFYHC [p4713],OD halfmax 1:X (dilution factor of the parental antibody at half-maximal OD) (dilutionfactor(1:x)),[8],< 4000
GTLIFHHC [p4695],OD halfmax dilution factor of the parental antibody (1:X) (dilutionfactor(1:x)),[7],40000 to 320000
GQIIFQSC [p4668],OD halfmax dilution factor of the parental antibody (1:X) (dilutionfactor(1:x)),[7],40000 to 320000
HEPLFSHC [p4719],OD halfmax 1:X (dilution factor of the parental antibody at half-maximal OD) (dilutionfactor(1:x)),[8],< 4000
NWFPHPC [p4392],OD halfmax 1:X (dilution factor of the parental antibody at half-maximal OD) (dilutionfactor(1:x)),[8],< 4000
same,OD at 10 ug peptide relative to OD of original peptide (inhibition ELISA),[9],2 to 3 fold
Ac-GEIYFERC [p4804],OD halfmax dilution factor of the parental antibody (1:X) (dilutionfactor(1:x)),[7],40000 to 320000
TSTEMWHC [p4754],OD halfmax 1:X (dilution factor of the parental antibody at half-maximal OD) (dilutionfactor(1:x)),[8],< 4000
